Assay: recombinant barcode read abundance after kanamycin selection (control-corrected) (log10(CPM+1)); higher = more efficient recombination; sequences stand for … in AGTGCAGAGAAAATCGGCCAGTTTTCTCTGCCTGCAGTCCGCATGCCGT…AGATTTATGCAGCGGACTGCCTTTCTCCCAAAGTGATAAACCGGACAGTATCATGGACCGGTTTTCCCGGTAATCCGTATTTGCAAGGTTGGTTTCACT; site = the 11-nt target
How it was run: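 The screen was pooled in E. coli and paired targets with IS621 bridge RNA target-binding loops. Recombination efficiency is taken from barcode counts per million at recombinant junctions, averaged and adjusted against the control. Values, in the form log10(CPM+1), come from duplicate plating on chloramphenicol/ampicillin LB agar or on chloramphenicol/ampicillin/kanamycin with 0.1 mM IPTG.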
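Note: IS621 recombinase and bridge RNA in Escherichia coli cells.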

| Sequence | recombinant barcode read abundance (log10) |
| --- | --- |
| CTTTAAGCTTGGGTTCTAACCTGTTGCTA (site ACCGTTCCTAG) | 0.0964 |
| CTTTAAGCTTGGGTTCTAACCTGTTGCTA (site CTTTAAGCTTA) | 0.195 |
| CTTTAATCTTGGGTTCTAACCTGTTGCCT (site CTTAAATCTAG) | 0.349 |
| CTTTAATCTTGGGTTCTAACCTGTTGCCT (site CTTCAATCTAG) | 0.158 |
| CTTTAATCTTGGGTTCTAACCTGTTGCCT (site CTTGAATCTAG) | 0.0679 |
| CTTTAATCTTGGGTTCTAACCTGTTGCCT (site CTTTAATCTAG) | 0.165 |
| CTTTAGACTTGGGTTCTAACCTGTTGCAT (site CTCTAGACTAC) | 0.0162 |
| CTTTAGACTTGGGTTCTAACCTGTTGCAT (site CTTTAGACTAT) | 0.926 |
| CTTTCCTCTTGGGTTCTAACCTGTTGCCT (site CATTCCTCTAG) | 0.153 |
| CTTTCCTCTTGGGTTCTAACCTGTTGCCT (site CCTTCCTCTAG) | 0.0332 |
| CTTTCCTCTTGGGTTCTAACCTGTTGCCT (site CGTTCCTCTAG) | 0.0618 |
| CTTTCCTCTTGGGTTCTAACCTGTTGCCT (site CTTTCCTCTAG) | 0.831 |
| CTTTCCTCTTGGGTTCTAACCTGTTGCTT (site CATTACTCTAA) | 0.2 |
| CTTTCCTCTTGGGTTCTAACCTGTTGCTT (site CTTTCCTCTAA) | 0.92 |
| CTTTCGTCTTGGGTTCTAACCTGTTGCCT (site CTTTCACCTAG) | 0.0235 |
| CTTTCGTCTTGGGTTCTAACCTGTTGCCT (site CTTTCGTCTAG) | 0.0335 |
| CTTTGAGCTTGGGTTCTAACCTGTTGCAT (site CTTCGGGCTAT) | 0.0604 |
| CTTTGAGCTTGGGTTCTAACCTGTTGCAT (site CTTTGAGCTAT) | 0.632 |
| CTTTGATCTTGGGTTCTAACCTGTTGCGT (site CATCGATCTAC) | 0.0142 |
| CTTTGATCTTGGGTTCTAACCTGTTGCGT (site CTTTGATCTAC) | 1.29 |
| GAAACAGCTTGGGTTCTAACCTGTTGCCT (site GAAACAGCTAG) | 0.725 |
| GAAACAGCTTGGGTTCTAACCTGTTGCCT (site GACACAGCTAG) | 0.0141 |

| Sequence | recombinant barcode read abundance (log10) |
| --- | --- |
| GAAACAGCTTGGGTTCTAACCTGTTGCCT (site GAGACAGCTAG) | 0.281 |
| GAAACAGCTTGGGTTCTAACCTGTTGCCT (site GATACAGCTAG) | 0.158 |
| GAAAGTCCTTGGGTTCTAACCTGTTGCCT (site GAAAATCCTAG) | 0.0602 |
| GAAAGTCCTTGGGTTCTAACCTGTTGCCT (site GAAACTCCTAG) | 0.0877 |
| GAAAGTCCTTGGGTTCTAACCTGTTGCCT (site GAAAGTCCTAG) | 0.917 |
| GAAAGTCCTTGGGTTCTAACCTGTTGCCT (site GAAATTCCTAG) | 0.0822 |
| GAAATACCTTGGGTTCTAACCTGTTGCGG (site AGCTATGCTAG) | 0.131 |
| GAAATACCTTGGGTTCTAACCTGTTGCGG (site GAAATACCTCC) | 1.41 |
| GAACAGCCTTGGGTTCTAACCTGTTGCGT (site ATTGCTACTTG) | 0.278 |
| GAACAGCCTTGGGTTCTAACCTGTTGCGT (site GAACAGCCTAC) | 0.943 |
| GAACCACCTTGGGTTCTAACCTGTTGCCT (site GAACCACCTAG) | 1.75 |
| GAACCACCTTGGGTTCTAACCTGTTGCCT (site TCACCACCTAG) | 0.133 |
| GAACCTACTTGGGTTCTAACCTGTTGCCG (site GAACCTACTCG) | 0.583 |
| GAACCTACTTGGGTTCTAACCTGTTGCCG (site GAGCCTACTAG) | 0.172 |
| GAACCTACTTGGGTTCTAACCTGTTGCGA (site GAACCTACTCC) | 0.0825 |
| GAACCTACTTGGGTTCTAACCTGTTGCGA (site GAACCTACTTC) | 1.87 |
| GAACCTCCTTGGGTTCTAACCTGTTGCAT (site GAACCTCCTAT) | 1.94 |
| GAACCTCCTTGGGTTCTAACCTGTTGCAT (site TGCGTAACTTG) | 0.0548 |
| GAACGACCTTGGGTTCTAACCTGTTGCTG (site GAACGACCTAA) | 0.0602 |
| GAACGACCTTGGGTTCTAACCTGTTGCTG (site GAACGACCTCA) | 1.16 |
| GAACGATCTTGGGTTCTAACCTGTTGCCT (site GAACCTTCTAG) | 0.148 |
| GAACGATCTTGGGTTCTAACCTGTTGCCT (site GAACGATCTAG) | 0.397 |

| Sequence | recombinant barcode read abundance (log10) |
| --- | --- |
| GAACGCTCTTGGGTTCTAACCTGTTGCCA (site AGGTCTACTAA) | 0.0972 |
| GAACGCTCTTGGGTTCTAACCTGTTGCCA (site GAACGCTCTTG) | 0.265 |
| GAACTTGCTTGGGTTCTAACCTGTTGCCT (site GAACTTGCTAG) | 1.24 |
| GAACTTGCTTGGGTTCTAACCTGTTGCCT (site GCCCTTGCTAG) | 0.176 |
| GAAGAGACTTGGGTTCTAACCTGTTGCCT (site GAAAACACTAG) | 0.0941 |
| GAAGAGACTTGGGTTCTAACCTGTTGCCT (site GAAGAGACTAG) | 1.57 |
| GAAGCATCTTGGGTTCTAACCTGTTGCCT (site GAAGCATCTAG) | 1.54 |
| GAAGCATCTTGGGTTCTAACCTGTTGCCT (site GATGCCTCTAG) | 0.123 |
| GAAGGGCCTTGGGTTCTAACCTGTTGCCT (site GAAGAGCCTAG) | 0.202 |
| GAAGGGCCTTGGGTTCTAACCTGTTGCCT (site GAAGCGCCTAG) | 0.225 |
| GAAGGGCCTTGGGTTCTAACCTGTTGCCT (site GAAGGGCCTAG) | 0.723 |
| GAAGGGCCTTGGGTTCTAACCTGTTGCCT (site GAAGTGCCTAG) | 0.0531 |
| GAAGTACCTTGGGTTCTAACCTGTTGCCT (site AAAGTACCTAG) | 0.881 |
| GAAGTACCTTGGGTTCTAACCTGTTGCCT (site CAAGTACCTAG) | 0.275 |
| GAAGTACCTTGGGTTCTAACCTGTTGCCT (site GAAGTACCTAG) | 1.92 |
| GAAGTACCTTGGGTTCTAACCTGTTGCCT (site TAAGTACCTAG) | 0.873 |
| GAAGTCACTTGGGTTCTAACCTGTTGCCT (site GAAGTCACTAG) | 1.99 |
| GAAGTCACTTGGGTTCTAACCTGTTGCCT (site TAAGTCACTAG) | 1.6 |
| GAAGTCTCTTGGGTTCTAACCTGTTGCCT (site GAAGTCTCTAG) | 2.59 |
| GAAGTCTCTTGGGTTCTAACCTGTTGCCT (site GTAGTCCCTAG) | 0.0661 |
| GAATCGACTTGGGTTCTAACCTGTTGCCT (site AGGGTACCTCT) | 0.192 |
| GAATCGACTTGGGTTCTAACCTGTTGCCT (site GAATCGACTAG) | 0.421 |

| Sequence | recombinant barcode read abundance (log10) |
| --- | --- |
| GAATCTTCTTGGGTTCTAACCTGTTGCTT (site CAATCGTCTAA) | 0.0978 |
| GAATCTTCTTGGGTTCTAACCTGTTGCTT (site GAATCTTCTAA) | 0.0983 |
| GACAAACCTTGGGTTCTAACCTGTTGCGG (site GACAAACCTCC) | 1.64 |
| GACAAACCTTGGGTTCTAACCTGTTGCGG (site GACACAACTCC) | 0.0381 |
| GACACAACTTGGGTTCTAACCTGTTGCGG (site GACAAACCTCC) | 0.0119 |
| GACACAACTTGGGTTCTAACCTGTTGCGG (site GACACAACTCC) | 1.14 |
| GACACACCTTGGGTTCTAACCTGTTGCAT (site GACACACCTAT) | 1.02 |
| GACACACCTTGGGTTCTAACCTGTTGCAT (site GTCACGCCTAT) | 0.0207 |
| GACACCTCTTGGGTTCTAACCTGTTGCCG (site GACACCTCTCG) | 1.12 |
| GACACCTCTTGGGTTCTAACCTGTTGCCG (site TCTGAAACTAA) | 0.157 |
| GACACCTCTTGGGTTCTAACCTGTTGCTT (site GACACCTCTAA) | 1.03 |
| GACACCTCTTGGGTTCTAACCTGTTGCTT (site GACACGTCTAG) | 0.461 |
| GACACGCCTTGGGTTCTAACCTGTTGCTT (site GACACGCCTAA) | 0.201 |
| GACACGCCTTGGGTTCTAACCTGTTGCTT (site GACACGCCTAC) | 0.0239 |
| GACACGCCTTGGGTTCTAACCTGTTGCTT (site GACACGCCTAG) | 0.0922 |
| GACACGCCTTGGGTTCTAACCTGTTGCTT (site GACACGCCTAT) | 0.0718 |
| GACACTGCTTGGGTTCTAACCTGTTGCCT (site GAAACTGCTAG) | 0.274 |
| GACACTGCTTGGGTTCTAACCTGTTGCCT (site GACACTGCTAG) | 0.403 |
| GACACTGCTTGGGTTCTAACCTGTTGCCT (site GAGACTGCTAG) | 0.044 |
| GACACTGCTTGGGTTCTAACCTGTTGCCT (site GATACTGCTAG) | 0.233 |
